Patent US20130053425A1, “Method for Lowering Intraocular Pressure Using Gap Junction Blockers” (priority 2011, published 2013)

Key:
[1] = Topical administration of heptanol to rabbit eyes, intraocular pressure (IOP) in vivo; details: topical administration of 1.0% heptanol to the eyes (FIG. 1)
From the text: FIG. 1 illustrates the effects of topical administration of 1.0% heptanol to rabbit eyes.

ciliary epithelium [2] = test: In vitro short-circuit current across the ciliary epithelium (rabbit)
ciliary epithelium [3] = test: In vitro short-circuit current across the ciliary epithelium (ox)
ciliary epithelium [4] = test: In vitro short-circuit current across the ciliary epithelium (pig)
[5] = test system: porcine ciliary epithelium; test: Fluid flow (FF) across the ciliary epithelium in modified Ussing-type chamber; details: aqueous addition of 3.5 mM heptanol, 25° C., n=6 (FIG. 2)
From the text: The reasons being that firstly, no information was available at the time to teach the preparation an intact ciliary epithelium, which is required for fluid flow measurement, and secondly, even when an intact ciliary epithelium was used, there was no device available that would enable measurement of fluid flow across the ciliary epithelium. In view of this, the inventors invested a great deal of effort into developing a modified Ussing-type chamber, which enables fluid flow (FF) and potential difference across the ciliary epithelium to be measured simultaneously. Fundamentally, the Ussing-type chamber includes two hemi-chambers, between which an excised preparation of ciliary epithelium is mounted. […] The graduated capillary can be used to monitor the change in fluid volume inside the second hemi-chamber throughout the experiment, which is then calculated as FF rate. […] At a later stage, the inventors further incorporated electrodes into the FF chamber to enable both electrical parameters and FF to be monitored simultaneously. […] (A) The calculated FF rate in the blood-to-aqueous direction during the course of the experiment. (B) PD recorded simultaneously with the measurement of the capillary levels.

## CCCCCCCO [heptanol]
[1]
  effectiveness in lowering intraocular pressure (IOP): inconclusive results
Ciliary epithelium [2]
  reduction of short-circuit current across the ciliary epithelium: ~80%
Ciliary epithelium [3]
  reduction of short-circuit current across the ciliary epithelium: ~80%
Ciliary epithelium [4]
  reduction of short-circuit current across the ciliary epithelium: ~80%
[5]
  inhibition of fluid flow across the ciliary epithelium: up to 78%
